Results published in patent US12378224B2 (Dong-A Socio Holdings Co., Ltd., priority 2016, dated 2025).

The compounds below were run against human MER (528-end) (Homo sapiens (Human), UniProt Q12866) (assay: HTRF Kinase Activity Biochemical Assay (KinEASE-TK)). Details: 10 uM ATP.
Summary of the method: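 Recombinant human MER (528-end) phosphorylated biotin-TK peptide substrate, 1 h at room temperature. Reaction stopped with detection buffer containing 0.375 nM Eu3+-cryptate anti-TK antibody and 0.062 uM streptavidin-XL665, 1 h further. Activity taken as HTRF ratio 665/620 nm ×10,000, 340 nm excitation.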

human MER (528-end), sequence (Q12866 528-999 limits assumed): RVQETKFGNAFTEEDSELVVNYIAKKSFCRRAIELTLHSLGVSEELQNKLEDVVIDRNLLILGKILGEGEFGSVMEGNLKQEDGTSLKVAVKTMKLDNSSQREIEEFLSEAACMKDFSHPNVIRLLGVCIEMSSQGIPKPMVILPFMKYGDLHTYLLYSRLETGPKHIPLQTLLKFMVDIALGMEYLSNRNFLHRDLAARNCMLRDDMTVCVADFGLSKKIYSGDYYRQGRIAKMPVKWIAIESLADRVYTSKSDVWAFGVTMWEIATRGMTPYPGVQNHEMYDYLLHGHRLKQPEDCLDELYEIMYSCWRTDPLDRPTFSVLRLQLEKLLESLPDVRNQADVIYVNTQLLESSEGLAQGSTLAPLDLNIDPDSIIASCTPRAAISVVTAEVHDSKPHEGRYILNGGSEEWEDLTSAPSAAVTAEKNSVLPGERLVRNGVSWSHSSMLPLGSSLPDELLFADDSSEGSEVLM

Which IC50 does the source give for Cc1cc(C(=O)N2CC[C@@H](NC(=O)c3cc(-c4cnn(C)c4)cnc3N)C2)ccc1-c1ccccc1 [Example 399, (R)-2-amino-5-(1-methyl-1H-pyrazol-4-yl)-N-(1-(2-methyl-[1,1′-biphenyl]-4-carbonyl)pyrrolidin-3-yl)nicotinamide] here?
Its IC50 is 100 to 1000 nM.

With Cn1cc(-c2cnc(N)c(C(=O)N[C@@H]3CCN(C(=O)c4ccc(I)cc4)C3)c2)cn1 [Example 400, (R)-2-amino-N-(1-(4-iodobenzoyl)pyrrolidin-3-yl)-5-(1-methyl-1H-pyrazol-4-yl)nicotinamide] as the compound, how does the IC50 read?
Its IC50 is over 1000 nM.

How did the IC50 turn out when Cn1cc(-c2cnc(N)c(C(=O)N[C@@H]3CCN(C(=O)c4cc5ccccc5o4)C3)c2)cn1 [Example 401, (R)-2-amino-N-(1-(benzofuran-2-carbonyl)pyrrolidin-3-yl)-5-(1-methyl-1H-pyrazol-4-yl)nicotinamide] was run?
The IC50 was over 1000 nM.

How did the IC50 turn out when Cc1c(C(=O)N2CC[C@@H](NC(=O)c3cc(-c4cnn(C)c4)cnc3N)C2)oc2ccccc12 [Example 402, (R)-2-amino-5-(1-methyl-1H-pyrazol-4-yl)-N-(1-(3-methylbenzofuran-2-carbonyl)pyrrolidin-3-yl)nicotinamide] was run?
The IC50 was over 1000 nM.

Which IC50 does the source give for Cn1cc(-c2cnc(N)c(C(=O)N[C@@H]3CCN(C(=O)c4cc5cc(Cl)ccc5o4)C3)c2)cn1 [Example 403, (R)-2-amino-N-(1-(5-chlorobenzofuran-2-carbonyl)pyrrolidin-3-yl)-5-(1-methyl-1H-pyrazol-4-yl)nicotinamide] here?
The IC50 was over 1000 nM.

With Cn1cc(-c2cnc(N)c(C(=O)N[C@@H]3CCN(C(=O)C4Cc5cc(Cl)ccc5O4)C3)c2)cn1 (stereo partly drawn) [Example 404, 2-amino-N-((3R)-1-(5-chloro-2,3-dihydrobenzofuran-2-carbonyl)pyrrolidin-3-yl)-5-(1-methyl-1H-pyrazol-4-yl)nicotinamide] as the compound, how does the IC50 read?
Its IC50 is over 1000 nM.

For Cn1cc(-c2cnc(N)c(C(=O)N[C@@H]3CCN(C(=O)c4ccc5ccccc5c4)C3)c2)cn1 [Example 405, (R)—N-(1-(2-naphthoyl)pyrrolidin-3-yl)-2-amino-5-(1-methyl-1H-pyrazol-4-yl)nicotinamide], which IC50 is on record?
Its IC50 is 100 to 1000 nM.

For Cn1cc(-c2cnc(N)c(C(=O)N[C@@H]3CCN(C(=O)c4cc5ccccc5s4)C3)c2)cn1 [Example 406, (R)-2-amino-N-(1-(benzo[b]thiophene-2-carbonyl)pyrrolidin-3-yl)-5-(1-methyl-1H-pyrazol-4-yl)nicotinamide], which IC50 is on record?
Its IC50 is 100 to 1000 nM.

Which IC50 does the source give for Cn1cc(-c2cnc(N)c(C(=O)N[C@@H]3CCN(C(=O)c4cc(Br)c(Br)s4)C3)c2)cn1 [Example 407, (R)-2-amino-N-(1-(4,5-dibromothiophene-2-carbonyl)pyrrolidin-3-yl)-5-(1-methyl-1H-pyrazol-4-yl)nicotinamide] here?
The IC50 was over 1000 nM.

How did the IC50 turn out when Cc1ccc(C(=O)N2CC[C@@H](NC(=O)c3cc(-c4cnn(C)c4)cnc3N)C2)s1 [Example 408, (R)-2-amino-5-(1-methyl-1H-pyrazol-4-yl)-N-(1-(5-methylthiophene-2-carbonyl)pyrrolidin-3-yl)nicotinamide] was run?
Its IC50 is over 1000 nM.

How did the IC50 turn out when Cn1cc(-c2cnc(N)c(C(=O)N[C@@H]3CCN(C(=O)c4ccc(OCc5ccccc5)cc4)C3)c2)cn1 [Example 410, (R)-2-amino-N-(1-(4-(benzyloxy)benzoyl)pyrrolidin-3-yl)-5-(1-methyl-1H-pyrazol-4-yl)nicotinamide] was run?
Its IC50 is 100 to 1000 nM.

With Cn1cc(-c2cnc(N)c(C(=O)N[C@@H]3CCN(C(=O)c4cccc(Oc5ccccc5)c4)C3)c2)cn1 [Example 412, (R)-2-amino-5-(1-methyl-1H-pyrazol-4-yl)-N-(1-(3-phenoxybenzoyl)pyrrolidin-3-yl)nicotinamide] as the compound, how does the IC50 read?
Its IC50 is over 1000 nM.

How did the IC50 turn out when Cn1cc(-c2cnc(N)c(C(=O)N[C@@H]3CCN(C(=O)c4ccc(C(C)(C)C)cc4)C3)c2)cn1 [Example 414, (R)-2-amino-N-(1-(4-(tert-butyl)benzoyl)pyrrolidin-3-yl)-5-(1-methyl-1H-pyrazol-4-yl)nicotinamide] was run?
Its IC50 is over 1000 nM.

How did the IC50 turn out when Cc1ccc(C(=O)N2CC[C@@H](NC(=O)c3cc(-c4cnn(C)c4)cnc3N)C2)cc1C [Example 415, (R)-2-amino-N-(1-(3,4-dimethylbenzoyl)pyrrolidin-3-yl)-5-(1-methyl-1H-pyrazol-4-yl)nicotinamide] was run?
Its IC50 is over 1000 nM.

Which IC50 does the source give for CN1CCN(c2ccc(C(=O)N3CC[C@@H](NC(=O)c4cc(-c5cnn(C)c5)cnc4N)C3)cc2)CC1 [Example 416, (R)-2-amino-5-(1-methyl-1H-pyrazol-4-yl)-N-(1-(4-(4-methylpiperazin-1-yl)benzoyl)pyrrolidin-3-yl)nicotinamide] here?
The IC50 was over 1000 nM.

How did the IC50 turn out when CC(C)c1ccc(C(=O)N2CC[C@@H](NC(=O)c3cc(-c4cnn(C)c4)cnc3N)C2)cc1 [Example 418, (R)-2-amino-N-(1-(4-isopropylbenzoyl)pyrrolidin-3-yl)-5-(1-methyl-1H-pyrazol-4-yl)nicotinamide] was run?
Its IC50 is over 1000 nM.

For Cn1cc(-c2cnc(N)c(C(=O)N[C@@H]3CCN(C(=O)c4ccc(C#N)cc4)C3)c2)cn1 [Example 419, (R)-2-amino-N-(1-(4-cyanobenzoyl)pyrrolidin-3-yl)-5-(1-methyl-1H-pyrazol-4-yl)nicotinamide], which IC50 is on record?
The IC50 was over 1000 nM.

With CSc1ccc(C(=O)N2CC[C@@H](NC(=O)c3cc(-c4cnn(C)c4)cnc3N)C2)cc1 [Example 420, (R)-2-amino-5-(1-methyl-1H-pyrazol-4-yl)-N-(1-(4-(methylthio)benzoyl)pyrrolidin-3-yl)nicotinamide] as the compound, how does the IC50 read?
The IC50 was over 1000 nM.

How did the IC50 turn out when Cn1cc(-c2cnc(N)c(C(=O)N[C@@H]3CCN(C(=O)Cc4ccc(-c5ccccc5)cc4)C3)c2)cn1 [Example 422, (R)—N-(1-(2-([1,1′-biphenyl]-4-yl)acetyl)pyrrolidin-3-yl)-2-amino-5-(1-methyl-1H-pyrazol-4-yl)nicotinamide] was run?
The IC50 was over 1000 nM.

Which IC50 does the source give for Cn1cc(-c2cnc(N)c(C(=O)N[C@@H]3CCN(C(=O)C=Cc4ccccc4)C3)c2)cn1 [Example 424, (R)-2-amino-N-(1-cinnamoylpyrrolidin-3-yl)-5-(1-methyl-1H-pyrazol-4-yl)nicotinamide] here?
Its IC50 is over 1000 nM.

With Cn1cc(-c2cnc(N)c(C(=O)N[C@@H]3CCN(C(=O)/C=C/c4ccc5c(c4)OCO5)C3)c2)cn1 [Example 425, (R,E)-2-amino-N-(1-(3-(benzo[d][1,3]dioxol-5-yl)acryloyl)pyrrolidin-3-yl)-5-(1-methyl-1H-pyrazol-4-yl)nicotinamide] as the compound, how does the IC50 read?
Its IC50 is over 1000 nM.

With C/C(=C\c1ccccc1)C(=O)N1CC[C@@H](NC(=O)c2cc(-c3cnn(C)c3)cnc2N)C1 [Example 426, (R,E)-2-amino-5-(1-methyl-1H-pyrazol-4-yl)-N-(1-(2-methyl-3-phenylacryloyl)pyrrolidin-3-yl)nicotinamide] as the compound, how does the IC50 read?
The IC50 was over 1000 nM.

With Cn1cc(-c2cnc(N)c(C(=O)N[C@@H]3CCN(C(=O)/C=C/c4ccc(Br)cc4)C3)c2)cn1 [Example 427, (R,E)-2-amino-N-(1-(3-(4-bromophenyl)acryloyl)pyrrolidin-3-yl)-5-(1-methyl-1H-pyrazol-4-yl)nicotinamide] as the compound, how does the IC50 read?
Its IC50 is 100 to 1000 nM.

How did the IC50 turn out when Cn1cc(-c2cnc(N)c(C(=O)N[C@@H]3CCN(C(=O)/C=C/c4cccc(Br)c4)C3)c2)cn1 [Example 428, (R,E)-2-amino-N-(1-(3-(3-bromophenyl)acryloyl)pyrrolidin-3-yl)-5-(1-methyl-1H-pyrazol-4-yl)nicotinamide] was run?
Its IC50 is over 1000 nM.

Which IC50 does the source give for CN1CCN(Cc2ccc(/C=C/C(=O)N3CC[C@@H](NC(=O)c4cc(-c5cnn(C)c5)cnc4N)C3)cc2)CC1 [Example 429, (R,E)-2-amino-5-(1-methyl-1H-pyrazol-4-yl)-N-(1-(3-(4-((4-methylpiperazin-1-yl)methyl)phenyl)acryloyl)pyrrolidin-3-yl)nicotinamide] here?
The IC50 was 100 to 1000 nM.

Which IC50 does the source give for Cn1cc(-c2cnc(N)c(C(=O)N[C@@H]3CCN(C(=O)/C=C/c4ccc(CN5CCN(CCO)CC5)cc4)C3)c2)cn1 [Example 430, (R,E)-2-amino-N-(1-(3-(4-((4-(2-hydroxyethyl)piperazin-1-yl)methyl)phenyl)acryloyl)pyrrolidin-3-yl)-5-(1-methyl-1H-pyrazol-4-yl)nicotinamide] here?
Its IC50 is over 1000 nM.

How did the IC50 turn out when CN1CCN(Cc2ccc(-c3ccc(/C=C/C(=O)N4CC[C@@H](NC(=O)c5cc(-c6cnn(C)c6)cnc5N)C4)cc3)cc2)CC1 [Example 432, (R,E)-2-amino-5-(1-methyl-1H-pyrazol-4-yl)-N-(1-(3-(4′-((4-methylpiperazin-1-yl)methyl)-[1,1′-biphenyl]-4-yl)acryloyl)pyrrolidin-3-yl)nicotinamide] was run?
Its IC50 is over 1000 nM.

For COc1ccccc1CC(=O)N1CC[C@@H](NC(=O)c2cc(-c3cnn(C)c3)cnc2N)C1 [Example 436, (R)-2-amino-N-(1-(2-(2-methoxyphenyl)acetyl)pyrrolidin-3-yl)-5-(1-methyl-1H-pyrazol-4-yl)nicotinamide], which IC50 is on record?
The IC50 was over 1000 nM.

With Cn1cc(-c2cnc(N)c(C(=O)N[C@@H]3CCN(C(=O)c4ccccc4)C3)c2)cn1 [Example 438, (R)-2-amino-N-(1-benzoylpyrrolidin-3-yl)-5-(1-methyl-1H-pyrazol-4-yl)nicotinamide] as the compound, how does the IC50 read?
Its IC50 is over 1000 nM.

Which IC50 does the source give for CN1CCN(Cc2ccc(-c3cccc4c(C(=O)N5CC[C@@H](NC(=O)c6cc(-c7cnn(C)c7)cnc6N)C5)cccc34)cc2)CC1 [Example 443, (R)-2-amino-5-(1-methyl-1H-pyrazol-4-yl)-N-(1-(5-(4-((4-methylpiperazin-1-yl)methyl)phenyl)-1-naphthoyl)pyrrolidin-3-yl)nicotinamide] here?
Its IC50 is over 1000 nM.

For Cn1cc(-c2cnc(N)c(C(=O)N[C@@H]3CCN(C(=O)c4cccc5c(-c6ccc(CN7CCC[C@@H]7CO)cc6)cccc45)C3)c2)cn1 [Example 444], which IC50 is on record?
The IC50 was over 1000 nM.

CC(NCc1ccc(-c2cccc3c(C(=O)N4CC[C@@H](NC(=O)c5cc(-c6cnn(C)c6)cnc5N)C4)cccc23)cc1)C1CCN(C)CC1 (stereo partly drawn) [Example 445] was tested. Which IC50 did it give?
Its IC50 is over 1000 nM.

CN1CCN(Cc2ccc(Oc3cccc(C(=O)N4CC[C@@H](NC(=O)c5cc(-c6cnn(C)c6)cnc5N)C4)c3)cc2)CC1 [Example 446, (R)-2-amino-5-(1-methyl-1H-pyrazol-4-yl)-N-(1-(3-(4-((4-methylpiperazin-1-yl)methyl)phenoxy)benzoyl)pyrrolidin-3-yl)nicotinamide] was tested. Which IC50 did it give?
Its IC50 is over 1000 nM.
